Paper PMC6040651 (Pediatric blood & cancer, 2018)
Where two headings read alike, the source gives them in different places.

Legend:
[1] = Isotretinoin pharmacokinetics, single sample on cycle 1 day 14; conditions: human, serum, oral, 80 mg/m^2/dose, 4 hr after the last dose of isotretinoin in cycle 1 (80 mg/m^2/dose twice daily), 12 patients
[2] = test system: refractory/recurrent neuroblastoma; assay: Antitumor activity; type: in vivo, patients; conditions: vorinostat + isotretinoin
[3] = test system: acetylated histone H3 in PBMC; assay: PBMC histone acetylation; type: in vivo, patients; conditions: for Mean percent change in histone acetylation (HA) levels from baseline: PBMC
[4] = test system: histone acetylation in PBMC; conditions: cited from earlier work
[5] = Vorinostat serum pharmacokinetics, cycle 1
[6] = test system: xenografts from neuroblastoma cell lines; conditions: xenografts from four of six neuroblastoma cell lines; cited from earlier work
[7] = dosed continuously; pediatric relapsed solid tumors; cited from earlier work
[8] = Phase I dose escalation and toxicity assessment; conditions: dose level 5 (430 mg/m^2/dose) + isotretinoin, n = 6
[9] = all dose levels, n = 23/28, geometric mean (95% confidence interval), oral, cycle 1
[10] = dose level 1 (180 mg/m^2/dose), n = 6/7, geometric mean (95% confidence interval), oral, cycle 1
[11] = dose level 5—MTD (430 mg/m^2/dose), n = 9/12, geometric mean (95% confidence interval), oral, cycle 1

CC1=C(/C=C/C(C)=C/C=C/C(C)=C\C(=O)O)C(C)(C)CCC1 [isotretinoin, cis-13-retinoic acid]
concentration at 4 h ([1]; Median serum concentration): 830 ng/mL
concentration at 4 h ([1]; Serum concentration, range): 190 to 1400 ng/mL

O=C(CCCCCCC(=O)Nc1ccccc1)NO [vorinostat, suberoylanilide hydroxamic acid]
Objective responses (CR or PR) ([2]; all dose levels, 19 patients evaluable for response): No objective responses
Patients who received 11–15 cycles of therapy ([2]; 7/29 patients): 24%
Patients completing ≥4 cycles without tumor progression ([2]; 11 of the 29 patients): 38%
6-month PFS rate ([2]; entire cohort of 29 patients): 0.36 ± 0.09
Median PFS ([2]; entire cohort of 29 patients, 95% confidence interval 1.6–11.0 months): 2.0 months
Percent change from baseline in HA levels, dose level 5 compared to dose levels 1–4 ([3]; 1 hr post treatment, P = 0.009, difference persisted at hours 6 and 24): significantly greater
Mean percent change in histone acetylation (HA) levels from baseline ([3]; dose level 5, hour 1, 6 patients): 18.5%
Mean percent change in histone acetylation (HA) levels from baseline ([3]; dose level 5, hour 6, 6 patients): 21.9%
Mean percent change in histone acetylation (HA) levels from baseline ([3]; dose level 5, hour 24, 5 patients): 14.4%
Mean percent change in histone acetylation (HA) levels from baseline ([3]; dose levels 1–4, hour 1, 7 patients): –3.9%
Mean percent change in histone acetylation (HA) levels from baseline ([3]; dose levels 1–4, hour 6, 5 patients): –2.9%
Histone acetylation in PBMC ([4]; continuous vorinostat MTD (230 mg/m^2/dose)): only transient PBMC HA was observed
Histone acetylation in PBMC ([4]; highest continuous dose level of vorinostat (300 mg/m^2/dose)): consistent PBMC HA
Clearance (Cl F obs) [5, 9]: 151 (115, 197) l/hr
Cmax [5, 9]: 428 (348, 526) ng/ml
Clearance (Cl F obs) [5, 10]: 152 (93, 250) l/hr
t½ [5, 10]: 2.6 (1.7, 4.0) hr
Clearance (Cl F obs) ([5]; dose level 2 (230 mg/m^2/dose), n = 2/3, geometric mean (95% confidence interval), oral, cycle 1): 181 (76, 427) l/hr
Clearance (Cl F obs) ([5]; dose level 3 (300 mg/m^2/dose), n = 3/3, geometric mean (95% confidence interval), oral, cycle 1): 129 (64, 260) l/hr
Clearance (Cl F obs) ([5]; dose level 4 (360 mg/m^2/dose), n = 3/3, geometric mean (95% confidence interval), oral, cycle 1): 322 (159, 649) l/hr
Clearance (Cl F obs) [5, 11]: 118 (79, 177) l/hr
t½ [5, 11]: 3.2 (2.3, 4.5) hr
AUC(0-inf) ([5]; human, serum, oral): 930 to 5780 ng·h/mL
Cmax ([5]; human, serum, oral): 158 to 980 ng/mL
clearance ([5]; human, serum, oral): 967 to 7250 mL/min
half-life ([5]; human, serum, oral): 1.2 to 10.1 h
AUC(0-inf) ([5]; human, serum, po): 2170 ng·h/mL
AUC(0-inf) ([5]; human, serum, po, 180 mg/m2): 1350 ng·h/mL
AUC(0-inf) ([5]; human, serum, po, 230 mg/m2): 1670 ng·h/mL
half-life ([5]; human, serum, po, 230 mg/m2): 2.4 h
AUC(0-inf) ([5]; human, serum, po, 300 mg/m2): 2640 ng·h/mL
Cmax ([5]; human, serum, po, 300 mg/m2): 552 ng/mL
AUC(0-inf) ([5]; human, serum, po, 430 mg/m2): 3250 ng·h/mL
Cmax ([5]; human, serum, po, 430 mg/m2): 587 ng/mL
Event-free survival compared to control-treated mice [6]: statistically significant prolongation in event-free survival
MTD of vorinostat alone [7]: 230 mg/m^2/day
Number of patients with grade 3+ upper respiratory infection ([8]; all cycles): 1
Number of patients with grade 3+ upper respiratory infection ([8]; first cycle): 0
